Measurements as given in patent US4082849A, “Halogenated N-(3,5-dihalophenyl)cyclopropanedicarboximides” (priority 1975, dated 1978).
Where two headings read alike, the source gives them in different places.

Key:
[1] = tested on: Aspergillus niger ATCC 6275; test: Anti-fungal spectrum, agar dilution method; format: cell-based; conditions: Aspergillus niger ATCC 6275, 50 ppm, PSA plate, 28° C
[2] = tested on: Chaetomium globosum ATCC 6205; test: Anti-fungal spectrum, agar dilution method; format: cell-based; conditions: Chaetomium globosum ATCC 6205, 50 ppm, PSA plate, 28° C
[3] = tested on: Pellicularia sasakii; test: Anti-fungal spectrum, agar dilution method; format: cell-based; conditions: read-out: growth inhibiting effect
[4] = tested on: Verticillium albo-atrum; test: Anti-fungal spectrum, agar dilution method; format: cell-based; conditions: PSA plate, 28° C, read-out: growth inhibiting effect
[5] = tested on: Rhizopus nigricans; test: Anti-fungal spectrum, agar dilution method; format: cell-based; conditions: Rhizopus stolonifer, PSA plate, 28° C, read-out: growth inhibiting effect
[6] = tested on: Sclerotinia sclerotiorum; test: Test for Sclerotinia sclerotiorum controlling effect on cucumbers; format: in vivo; conditions: 100 ppm
Procedure: After one day, Sclerotinia sclerotiorum was inoculated on the surface of the leaf, and the disease severity was observed three days thereafter. The degree of the severity was determined in the following manner. The rate of diseased area on the leaf was measured and classified in one of the six infectious indexes (0, 1, 2, 3, 4, 5) according to the undermentioned criteria. The number of leaves corresponding to each infectious index ([NT]5) was determined, and degree of severity was calculated according to the undermentioned equation: […]

[7] = tested on: Corticium rolfsii; test: Anti-fungal spectrum, agar dilution method; format: cell-based; conditions: Agroathelia rolfsii, PSA plate, 28° C, read-out: growth inhibiting effect
[8] = tested on: Rhizoctonia solani
Procedure: Test for Rhizoctonia solani controlling effect on cucumber
Farm soil was charged into pots of 9 cm in diameter and a soil (10 ml) infected with Rhizoctonia solani was dispersed over the surface of said soil. Each of the test compounds in the form of emulsifiable concentrates was diluted with water to a given concentration, and the dilution was applied into each pot in a proportion of 20 ml per pot. After 2 hours, 10 seeds of cucumber were sowed therein. 5 Days thereafter, the infectious state of the grown seedlings was observed, and the percentage of stand was calculated according to the following equation: [formula]

[9] = tested on: Pyricularia oryzae; test: microbe, parasite or virus in culture; format: cell-based; conditions: read-out: growth inhibiting effect
[10] = tested on: Giberella fujikuroi; test: Anti-fungal spectrum, agar dilution method; format: cell-based; conditions: read-out: growth inhibiting effect
[11] = tested on: Phytophthora infestans; test: microbe, parasite or virus in culture; format: cell-based; conditions: read-out: growth inhibiting effect
[12] = tested on: Fusarium oxysporum f. lycopersici; test: Anti-fungal spectrum, agar dilution method; format: cell-based; conditions: PSA plate, 28° C, read-out: growth inhibiting effect
[13] = tested on: Rhizoctonia solani; test: Anti-fungal spectrum, agar dilution method; format: cell-based; conditions: PSA plate, 28° C, read-out: growth inhibiting effect
[14] = tested on: Sclerotinia sclerotiorum; test: Anti-fungal spectrum, agar dilution method; format: cell-based; conditions: PSA plate, 28° C, read-out: growth inhibiting effect
[15] = tested on: Botrytis cinerea; test: Anti-fungal spectrum, agar dilution method; format: cell-based; conditions: PSA plate, 28° C, read-out: growth inhibiting effect
[16] = tested on: Glomerella cingulata
Procedure: Test for Glomerella Cingulata controlling effect on grape
An aqueous dilution of the test compound in the form of a wettable powder preparation was applied to berries of grape at a rate of 20 ml per branch. After one day, Glomerella cingulata was inoculated on the surface of the berries immediately after injuring the inoculation site. Three days after inoculation, disease assessment was made. Percentage of control was calculated from the diameter of diseased area according to the following equation: [formula]

[17] = tested on: Glomerella cingulata; test: Anti-fungal spectrum, agar dilution method; format: cell-based; conditions: Colletotrichum gloeosporioides, PSA plate, 28° C, read-out: growth inhibiting effect
[18] = tested on: Colletotrichum lagenarium; test: Anti-fungal spectrum, agar dilution method; format: cell-based; conditions: Colletotrichum orbiculare, PSA plate, 28° C, read-out: growth inhibiting effect
[19] = tested on: Botrytis cinerea; test: Test for Botrytis cinerea controlling effect on cucumbers; format: in vivo
Procedure: After one day, agar discs (diameter: 5 mm) with Botrytis cinerea were put on the leaves for inoculation. Three days after, the disease severity was observed, and the disease-controlling effect was estimated. Percentage of control was determined by the following procedure. The rate of diseased area on the tested leaf was measured and classified in one of the six infectious indexes (0, 1, 2, 3, 4, 5) according to the undermentioned criteria. The number of leaves corresponding to each infectious index ([NT]5) was determined, and percentage of control was calculated according to the undermentioned equation: […]

[20] = Pellicularia sasakii, 50 ppm, PSA plate, 28° C
[21] = Giberella fujikuroi, 50 ppm, PSA plate, 28° C

| Compound | growth inhibiting effect [1] | growth inhibiting effect [2] | inhibition at 50 ppm [4] | inhibition at 50 ppm [5] | Degree of severity [6] | inhibition at 50 ppm [7] | Percentage of stand ([8]; 250 ppm) | Percentage of stand ([8]; 500 ppm) | inhibition at 50 ppm [9] | inhibition at 50 ppm [11] | inhibition at 50 ppm [12] | inhibition at 50 ppm [13] | inhibition at 50 ppm [14] | inhibition at 50 ppm [15] | Percentage of control ([16]; 250 ppm of ingredient) | inhibition at 50 ppm [17] | inhibition at 50 ppm [18] | Percentage of control ([19]; 50 ppm) | Percentage of control ([19]; 200 ppm) | also measured |
| --- | --- | --- | --- | --- | --- | --- | --- | --- | --- | --- | --- | --- | --- | --- | --- | --- | --- | --- | --- | --- |
| CC12CC1(Cl)C(=O)N(c1cc(Cl)cc(Cl)c1)C2=O (stereo not drawn) [Compound 1, N-(3,5-dichlorophenyl)-α-chloro-β-methylcyclopropanedicarboximide] | A (no growth) | A (no growth) | 100% | 100% | 100% | 100% | 100% | 100% | 90% | 100% | 100% | 100% | 100% | 100% | 100% | 100% | 100% | – | – | inhibition at 50 ppm [3, 20]: 100%; inhibition at 50 ppm [10, 21]: 100% |
| O=C1C2CC2(Cl)C(=O)N1c1cc(Cl)cc(Cl)c1 (stereo not drawn) [Compound 2] | – | – | – | – | 100% | – | 100% | 100% | – | – | – | – | – | – | 100% | – | – | 100% | 100% | – |
| CC12CC1(Cl)C(=O)N(c1cc(Br)cc(Br)c1)C2=O (stereo not drawn) [Compound 3, N-(3,5-dibromophenyl)-α-chloro-β-methylcyclopropanedicarboximide] | A (no growth) | A (no growth) | 100% | 90% | 94% | 100% | – | – | 90% | 100% | 100% | 100% | 100% | 100% | 78.5% | 100% | 90% | 92% | 100% | inhibition at 50 ppm [3, 20]: 100%; inhibition at 50 ppm [10, 21]: 100% |
| CC1C2C(=O)N(c3cc(Cl)cc(Cl)c3)C(=O)C12Cl (stereo not drawn) [Compound 4] | – | – | – | – | 100% | – | 96.7% | 100% | – | – | – | – | – | – | – | – | – | 100% | 100% | – |
| CC12CC1(Br)C(=O)N(c1cc(Cl)cc(Cl)c1)C2=O (stereo not drawn) [Compound 5] | – | – | – | – | 100% | – | – | – | – | – | – | – | – | – | – | – | – | 95% | 100% | – |
| CCCCNC(=O)n1c(NC(=O)OC)nc2ccccc21 [Methyl-1-(butylcarbamoyl)-2-benzimidazole carbamate, reference compound] | – | – | – | – | 35% | – | – | – | – | – | – | – | – | – | – | – | – | 90% | 100% | – |
| O=[N+]([O-])c1c(Cl)c(Cl)c(Cl)c(Cl)c1Cl [PCNB, reference compound] | – | – | – | – | – | – | 93.4% | – | – | – | – | – | – | – | – | – | – | – | – | – |
| CC12CC1(C)C(=O)N(c1cc(Cl)cc(Cl)c1)C2=O (stereo not drawn) [reference compound] | E (5 % inhibition) | E (5 % inhibition) | 5% | 0% | – | 0% | 0% | 21.3% | 0% | 0% | 70% | 90% | 100% | 100% | 6.5% | 30% | 0% | – | – | inhibition at 50 ppm [3]: 100%; inhibition at 50 ppm [10]: 0% |
| Mancozeb [reference compound] | – | – | – | – | – | – | – | – | – | – | – | – | – | – | – | – | – | – | – | Percentage of control ([16]; 140 ppm of ingredient): 65.0% |
